Results from article PMC10108392, “Rimonabant-Based Compounds Bearing Hydrophobic Amino Acid Derivatives as Cannabinoid Receptor Subtype 1 Ligands” (ACS Medicinal Chemistry Letters, 2023).
“Also recorded” adds a separate entry of the source.

Assays:
[1] = biological target: T1, CB1R (Rattus norvegicus, UniProt P20272); assay: [3H]WIN55,212-2 radioligand competition binding assay in rat brain membrane homogenate; conditions: for Ki: read-out: Ki [3H]WIN55,212-2 binding, 5 nM [3H]WIN55,212-2, ± SEM, n.b. = no binding of ligands was observed
T1 construct: Crude membrane fractions were prepared from the brain; from tissue; host or cells: Wistar rat whole brain, crude membrane fraction
T1 sequence (P20272 whole entry): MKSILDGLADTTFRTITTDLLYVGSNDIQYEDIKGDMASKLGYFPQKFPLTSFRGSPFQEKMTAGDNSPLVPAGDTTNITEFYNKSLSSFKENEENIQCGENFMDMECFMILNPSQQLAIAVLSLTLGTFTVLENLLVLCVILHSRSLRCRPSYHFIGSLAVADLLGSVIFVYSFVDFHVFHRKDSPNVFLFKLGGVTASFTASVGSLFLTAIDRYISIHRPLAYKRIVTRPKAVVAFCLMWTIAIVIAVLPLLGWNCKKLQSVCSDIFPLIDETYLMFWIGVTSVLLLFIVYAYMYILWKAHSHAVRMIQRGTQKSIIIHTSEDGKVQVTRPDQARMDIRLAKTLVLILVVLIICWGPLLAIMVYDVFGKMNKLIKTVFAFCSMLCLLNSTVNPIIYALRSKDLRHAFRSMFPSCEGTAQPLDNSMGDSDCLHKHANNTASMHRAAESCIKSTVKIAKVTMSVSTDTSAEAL
Procedure: (§1) Our novel chemical compounds were tested in vitro for their binding ability, efficacy, and potency on CB1R in rat brain membrane homogenate (Table 2 and SI, Figure S1). CB1Rs are the most abundant G-protein coupled receptors in the rodent and mammalian brain; therefore, this is an appropriate model to characterize our ligands in a more physiological system.
(§2) In Vitro Biological Assays
(§3) Preparation of Brain Membrane Homogenates
(§4) Wistar rats were locally bred and handled according to the EU Directive 2010/63/EU and to the Regulations on Animal Protection (40/2013. (II. 14.) Korm. r.) of Hungary. Crude membrane fractions were prepared from the brain. Brains were quickly removed from the euthanized rats and directly put in an ice-cold 50 mM Tris-HCl buffer (pH 7.4). The collected tissue was then homogenized in 30 volumes (v/w) of an ice-cold buffer with a Braun Teflon-glass homogenizer at the highest rpm. The homogenate was centrifuged at 20,000 × g for 25 min, and the resulting pellet was suspended in the same volume of a cold buffer followed by incubation at 37 °C for 30 min to remove endogenous ligands. Centrifugation was then repeated. The final pellets were taken up in five volumes of a 50 mM Tris-HCl (pH 7.4) buffer containing 0.32 M sucrose and stored at -80 °C. Prior to the experiment, aliquots were thawed and centrifuged at 20,000 ×g for 25 min and then they were resuspended in 50 mM Tris-HCl (pH 7.4), homogenized with a Douncer, followed by the determination of the protein concentration by the method of Bradford. The membrane suspensions were immediately used either in radioligand binding experiments or in [35S]GTPγS functional assays.
Radioligand Competition Binding Assay
Binding experiments were performed at 30 °C for 60 min in a 50 mM Tris-HCl binding buffer (pH 7.4) containing 2.5 mM of EGTA, 5 mM of MgCl2 and 0.5 mg/mL of fatty acid-free BSA in plastic tubes in a total assay volume of 1 mL that contained 0.3-0.5 mg/mL of a membrane protein. Competition binding […]
ligands. […] The incubation […]
was terminated by diluting the samples with an ice-cold wash buffer (50 mM of Tris-HCl, 2.5 mM of EGTA, 5 mM of MgCl2, 0.5% fatty acid free BSA, pH 7.4), followed by repeated washing and rapid filtration through Whatman GF/B glass fiber filters (Whatman Ltd., Maidstone, UK) pre-soaked with 0.1% polyethyleneimine (30 min before the filtration). Filtration was performed with a 24-well Brandel Cell Harvester (Gaithersburg, MD, USA). Filters were air-dried and immersed into Ultima Gold MV scintillation cocktail, and then radioactivity was measured with a TRI-CARB 2100TR liquid scintillation analyzer (Packard, Perkin Elmer, Waltham, MA, USA). […]
The results of the competition binding studies are reported as means ± S.E.M. of at least three independent experiments each performed in duplicate. In competition binding studies, the inhibitory constants (Ki) were calculated from the inflection points of the displacement curves using non-linear least-square curve fitting and the Cheng-Prusoff equation, Ki= […]/(1 + [ligand]/Kd). […]

[2] = biological target: T1, CB1R; assay: Ligand stimulated [35S]GTPγS binding assay in rat brain membranes; type: biochemical; conditions: for CB1R functional profile (agonist / antagonist / inverse agonist): from [35S]GTPγS binding; for CB1R functional profile (agonist / antagonist / inverse agonist) / EC50: rat brain membranes; for Emax: read-out: [35S]GTPγS stimulation Emax; for EC50: ± SEM, read-out: [35S]GTPγS stimulation EC50
Procedure: as §1, §2, §3
as §4, with “assays. […]” for “assays.”
was terminated by diluting the samples with an ice-cold wash buffer (50 mM of Tris-HCl, 2.5 mM of EGTA, 5 mM of MgCl2, 0.5% fatty acid free BSA, pH 7.4), followed by repeated washing and rapid filtration through Whatman GF/B glass fiber filters (Whatman Ltd., Maidstone, UK) pre-soaked with 0.1% polyethyleneimine (30 min before the filtration). Filtration was performed with a 24-well Brandel Cell Harvester (Gaithersburg, MD, USA). Filters were air-dried and immersed into Ultima Gold MV scintillation cocktail, and then radioactivity was measured with a TRI-CARB 2100TR liquid scintillation analyzer (Packard, Perkin Elmer, Waltham, MA, USA).
Ligand Stimulated [35S]GTPγS Binding Assay
Rat brain membranes (30 µg protein/tube), prepared as described above, were incubated with 0.05 nM of […]
mM of NaCl, 3 mM of MgCl2 and 1 mM of EGTA in a 50 mM Tris-HCl buffer (pH 7.4) for 60 min at 30 °C. Basal [35S]GTPγS binding was measured in the absence of ligands and set as 100%. Nonspecific […]
binding was determined by the addition of 10 µM unlabelled GTPγS and subtracted from total binding.
Incubation, filtration and radioactivity measurements of the samples were carried out as described above. […]
All […]
data and curves were analyzed by GraphPad Prism 5.0 (San Diego, CA, USA).

[3] = system: mice; assay: Feeding test (food intake); type: in vivo, mouse; conditions: 10 mg/kg i.p., 1-h test, vs vehicle
Procedure: The tested compounds were injected i.p. (10 mg/kg), and after leaving for 30 min to allow the drug assimilation, mice were placed into individual cages with access to a predefined amount of their standard lab chow (2 g) for the 1-h test.
(§5) In Vivo Biological Assays
The international and national law and policies approved by Italian Ministry of Health were used to comply with all animal care and experimental procedures. Animal studies were advised in compliance with the ARRIVE guidelines and with the recommendations made by EU Directive 2010/63/EU for animal experiments and the Basel declaration including the 3Rs concept. CD-1 male mice (10-14 weeks of age, 25-30 g of weight) were bought from Charles River (Milan, Italy). Shortly after their arrival and for at least one week, they were kept in an animal care facility under controlled standard conditions of temperature (21 ± 1 °C), light (from 7:00 AM to 7:00 PM), and relative humidity (60 ± 10%). Access to drinking water and food was assured. All procedures were performed to decrease the number of animals used (n = 7 per group) and their distress.
The test was carried out as previously described. At 24 h before the start of a feeding test, all food was removed from the home cages of mice to be tested. The next day and at least 1 h before the feeding test began, the mice were transported to the laboratory. On test days, the animals were placed in the home cages for 30 min of drug assimilation, during which food was not available. Then compounds were intraperitoneally administered (10 mg/kg). Mice were transferred into transparent and individual plastic cages with thick white paper lining the bottom and access to a pre-measured amount of their regular lab chow (2 gr) for the 1-h test. At the end of 1 h, mice were repositioned into their home cage. The amount of food left in the trial cage, including crumbs, was measured, and the amount consumed was calculated.
Feeding trials normally happened on Tuesdays and Fridays between 12:00 and 14:00 h. […]

[4] = system: mice; assay: Hot plate test; type: in vivo, mouse; conditions: 10 μg/10 μL i.c.v., 15-120 min
Excerpt: as §5
The international and national law and policies approved by Italian Ministry of Health were used to comply with all animal care and experimental procedures. Animal studies were advised in compliance with the ARRIVE guidelines and with the recommendations made by EU Directive 2010/63/EU for animal experiments and the Basel declaration including the 3Rs concept. CD-1 male mice (10-14 weeks of age, 25-30 g of weight) were bought from Charles River (Milan, Italy). […]
The test was carried out as previously described. […] Mice were transferred into transparent and individual plastic cages with thick white paper lining the bottom and access to a pre-measured amount of their regular lab chow (2 gr) for the 1-h test. […] The amount of food left in the trial cage, including crumbs, was measured, and the amount consumed was calculated. […]
Thermal nociception (hot-plate test) was assessed with a commercially available apparatus consisting of a metal plate 25x25 cm (Ugo Basile, Italy) heated to a constant temperature of 55.0 ± 0.1 °C, on which a plastic cylinder (20 cm diameter, 18 cm high) was placed. The time of latency (s) was recorded from the moment the animal was placed in the cylinder on the hot plate until it licked its paws or jumped; the cut-off time was 60 s. […] The time course of latency was then determined at 15, 30, 45, 60, 90 and 120 min after compound treatment. […]

[5] = system: mice; assay: Zymosan-induced paw edema; type: in vivo, mouse; conditions: 100 μg/20 μL s.c., 15 min before zymosan
Procedure: Drugs were administered s.c. in the dorsal surface of the right hind paw at the dose of 100 μg/20 μL, 15 min before zymosan. […]
testing. […] Then, the compounds were
Compounds were prepared by freshly diluting
Then, these solutions were injected for
The total time the animal spent licking or biting its paw was calculated.
Then, paw edema was calculated as formerly
Paw volume was quantified using a
Data Analysis and Statistics
Statistically significant differences between
Data were considered statistically
The data and statistical analyses respected the recommendations on experimental design and analysis.

[6] = system: partially satiated rats; conditions: cited from earlier work
[7] = system: rats with spinal cord injury (SCI); conditions: repeated treatment; cited from earlier work
[8] = system: mice; conditions: mice colitis model; cited from earlier work

Structure (SMILES) | Ki [1] [nM] | CB1R functional profile (agonist / antagonist / inverse agonist) [2] | Emax [2] [%] | food intake [3] | EC50 [2] [nM] | Ki [3H]WIN55,212-2 binding ([1]; 5 nM [3H]WIN55,212-2, ± SEM, n.b. = no binding of ligands was observed) | anti-nociceptive effect in hot plate test (%MPE) [4] | anti-inflammatory effect on zymosan-induced paw volume increase [5] | food intake and motor behavior after WIN55,212-2 ([6]; higher doses (5 mg/kg), partially satiated rats) | food intake after WIN55,212-2 ([6]; i.p. 1 mg/kg and 2 mg/kg, up to 6 h after the injection) | neuropathic pain-related behavior [7] | anti-inflammatory effect in DSS-induced colitis [8]
Cc1c(C(=O)N[C@H](C(N)=O)C(C)(C)C)nn(-c2ccc(Cl)cc2)c1-n1cccc1 [Compound 14, RS2691-tLeu-NH2] | 21 ± 3.8 | antagonist | 104 ± 1.4 | activity profile close to that of the vehicle |  |  |  |  |  |  |  | 
Cc1c(C(=O)N[C@H](C(N)=O)C(C)(C)C)nn(-c2ccccc2)c1-n1cccc1 [Compound 18, RS2709-tLeu-NH2] | 60 ± 6.1 | inverse agonist | 57 ± 13 | slight reduction in food intake | 3320 ± 242 |  |  |  |  |  |  | 
COC(=O)[C@@H](NC(=O)c1cc(-n2cccc2)n(-c2ccc(Cl)cc2)n1)C(C)C [Compound 21, RS2689-Val-OCH3] | 261 ± 27 | inverse agonists | 52 ± 4.8 | slight reduction in food intake | 1360 ± 139 |  |  |  |  |  |  | 
COC(=O)[C@@H](NC(=O)c1cc(-n2cccc2)n(-c2ccc(Cl)cc2)n1)C(C)(C)C [Compound 22, RS2689-tLeu-OCH3] | 44 ± 4 | inverse agonists | 43 ± 12 | activity profile close to that of the vehicle | 4960 ± 333 |  |  |  |  |  |  | 
COC(=O)[C@@H](NC(=O)c1nn(-c2ccc(Cl)cc2)c(-n2cccc2)c1C)C(C)(C)C [Compound 24, RS2691-tLeu-OCH3] | 17 ± 3.7 | inverse agonists; also recorded: strong antagonist | 99 ± 4 | slight reduction in food intake |  |  |  |  |  |  |  | 
COC(=O)[C@@H](NC(=O)c1cc(-n2cccc2)n(-c2ccccc2)n1)C(C)(C)C [Compound 26, RS2708-tLeu-OCH3] | 283 ± 18 | inverse agonists | 44 ± 5 | strong anorexic effect comparable to that of rimonabant | 1290 ± 151 |  |  |  |  |  |  | 
COC(=O)[C@@H](NC(=O)c1nn(-c2ccc(Cl)cc2Cl)c(-n2cccc2Cl)c1C)C(C)C [Compound 29, RS3516-Val-OCH3] | 30 ± 3.5 | inverse agonists | 44 ± 10 | strong anorexic effect comparable to that of rimonabant | 2840 ± 118 |  |  |  |  |  |  | 
CNC(=O)[C@@H](NC(=O)c1nn(-c2ccc(Cl)cc2Cl)c(-n2cccc2Cl)c1C)C(C)(C)C [Compound 40, RS3516-tLeu-NHCH3] |  |  |  |  | 237 ± 45 | n.b. |  |  |  |  |  | 
Cc1c(C(=O)c2cccc3ccccc23)c2cccc3c2n1[C@H](CN1CCOCC1)CO3 [WIN55,212-2] |  |  | 170 ± 1.7 |  |  |  | diminished immediately after administration | induced an anti-inflammatory effect | inhibit the food intake and motor behavior | hyperphagia | sustained decrease in neuropathic pain-related behavior | acting as an anti-inflammatory drug with improved pathological changes
